# Test results reported in the supplement of paper PMC10307832.
# Experiments:
# Assay in all cases: relative viability (nuclei count vs DMSO), 5 days (fraction); higher = more cells survive
# IMD-0354 + Luminespib = compound: O=C(Nc1cc(C(F)(F)F)cc(C(F)(F)F)c1)c1cc(Cl)ccc1O [IMD-0354] + CCNC(=O)c1noc(-c2cc(C(C)C)c(O)cc2O)c1-c1ccc(CN2CCOCC2)cc1 [Luminespib] (partner 0.01 µM)
# Procedure, shortened: (§1)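 Medians of duplicate plates are given as relative viability. That measure is the nuclei count in treated wells divided by the count in vehicle wells. Counts were taken on 4× images of lung cancer cell lines in 1536-well plates, 5 days after pin-tool dosing the day after seeding with one drug alone or a fixed anchor-drug dose plus five library-drug doses (not always all listed) in √10 steps.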
# CX-5461 + OSI-027 = compound: Cc1cnc(CNC(=O)c2c(=O)c3ccc(N4CCCN(C)CC4)nc3n3c2sc2ccccc23)cn1 [CX-5461] + COc1cccc2cc(-c3nc([C@H]4CC[C@H](C(=O)O)CC4)n4ncnc(N)c34)[nH]c12 [OSI-027] (partner 0.5 µM)
# Procedure, shortened: as §1
# CX-5461 + Phenformin = compound: Cc1cnc(CNC(=O)c2c(=O)c3ccc(N4CCCN(C)CC4)nc3n3c2sc2ccccc23)cn1 [CX-5461] + N=C(N)NC(=N)NCCc1ccccc1 [Phenformin] (partner 250 µM)
# Procedure, shortened: as §1
# CX-5461 + Olaparib = compound: Cc1cnc(CNC(=O)c2c(=O)c3ccc(N4CCCN(C)CC4)nc3n3c2sc2ccccc23)cn1 [CX-5461] + O=C(c1cc(Cc2n[nH]c(=O)c3ccccc23)ccc1F)N1CCN(C(=O)C2CC2)CC1 [Olaparib] (partner 8 µM)
# Procedure, shortened: as §1
cell line,measurement,setting,value
UMC-11,relative viability,IMD-0354 + Luminespib; first compound 0.04 µM,1.1
same,relative viability,IMD-0354 + Luminespib; first compound 0.1265 µM,0.888
same,relative viability,IMD-0354 + Luminespib; first compound 0.4 µM,0.434
same,relative viability,IMD-0354 + Luminespib; first compound 1.265 µM,0.27
same,relative viability,IMD-0354 + Luminespib; first compound 4 µM,0.273
same,relative viability,CX-5461 + OSI-027; first compound 0.01 µM,0.542
same,relative viability,CX-5461 + OSI-027; first compound 0.03162 µM,0.431
same,relative viability,CX-5461 + OSI-027; first compound 0.1 µM,0.389
same,relative viability,CX-5461 + OSI-027; first compound 0.3162 µM,0.475
same,relative viability,CX-5461 + OSI-027; first compound 1 µM,0.274
same,relative viability,CX-5461 + Phenformin; first compound 0.01 µM,0.323
same,relative viability,CX-5461 + Phenformin; first compound 0.03162 µM,0.298
same,relative viability,CX-5461 + Phenformin; first compound 0.1 µM,0.246
same,relative viability,CX-5461 + Phenformin; first compound 0.3162 µM,0.293
same,relative viability,CX-5461 + Phenformin; first compound 1 µM,0.217
same,relative viability,CX-5461 + Olaparib; first compound 0.01 µM,0.323
same,relative viability,CX-5461 + Olaparib; first compound 0.03162 µM,0.369
same,relative viability,CX-5461 + Olaparib; first compound 0.1 µM,0.321
same,relative viability,CX-5461 + Olaparib; first compound 0.3162 µM,0.395
same,relative viability,CX-5461 + Olaparib; first compound 1 µM,0.267
